In data set [1] the test system is CH1/PA-1 ovarian teratocarcinoma cells. The arrangement: method as in PMID 38426897. The note with it: MTT assay, exposure time 96 h; ref [5]; read-out: 50% inhibitory concentration CH1 (chlorido complexes, reference) (converted); cited from earlier work.
Data set [2] deals with HCT116 colorectal cancer cell line (2D). The data set can be described thus: Resazurin assay, HCT116 2D (monolayer) culture. Conditions: read-out: IC50 2D, resazurin assay, 96 h exposure. (In general: Alamar Blue is a resazurin reagent that responds to reducing activity.)
Description: (§2) Both models were investigated by the fluorimetric resazurin assay after 96-h exposure.
(§3) HCT116 colorectal carcinoma cells (RRID:CVCL_0291 from ATCC) were cultivated in McCoy's 5A medium, supplemented with 10% heat-inactivated fetal bovine serum and 4 mM L-glutamine.
(§4) For 2D experiments, HCT116 cells were harvested from culture flasks by trypsinization, seeded in 100-μL aliquots into 96-well microculture plates (CytoOne, TC-treated, from Starlab) in densities of 2 × 10^3 cells per well, and incubated for 24 h prior to exposure to the test compounds. […] Stock solutions of test compounds were prepared in DMF, which were then diluted in McCoy's 5A-supplemented medium (not to exceed a final content of 0.5% v/v of organic solvent in the test plates), and serial dilutions were added in aliquots of 100 μL per well. […] After incubation for 4 h, fluorescence was measured with a microplate reader (Bio-Tek, SynergyHT) at a wavelength of 530 nm, additionally using a reference wavelength of 620 nm.
The test system of data set [3] is SW480 cells. The data set can be described thus: DCFH-DA assay, cellular ROS levels. The note with it: 2 h, concentration dependent. Format: cell-based, human. The procedure: For this approach, SW480 cells were subjected to the 2′,7′-dichlorofluorescin-diacetate (DCFH-DA) assay.
SW480 colon adenocarcinoma cells were trypsinized for 5 min in a humidified incubator at 37°C and under a 5% CO2 atmosphere. Supplemented MEM was added to stop trypsinization, and cells were centrifuged for 3 min at 1200 rpm (Heraeus Megafuge 1.0R). After cell counting, SW480 cells were seeded in 100-μL aliquots in densities of 2.5 × 10^4 cells/well into 96-well clear flat-bottom microplates (CytoOne, TC-treated, from Starlab). After incubation for 24 h, cells were washed with 200 μL of Hanks' balanced salt solution (HBSS; Sigma-Aldrich; supplemented with 1% heat-inactivated FCS). […] After washing cells with 200 μL of supplemented HBSS, serially diluted test compounds in phenol-red-free Opti-MEM (Gibco), supplemented with 1% heat-inactivated FCS, were added in 200-μl triplicates and tert-butyl hydroperoxide (TBHP) was applied as positive control. […] Blank-corrected values were calculated relative to negative controls (treated with drug-free supplemented Opti-MEM) from three independent experiments.

The subject of data set [4] is G4 forming sequences (h-Telo, bcl2, hTERT, Kit1, Kit2) and dsDNA. Also noted: method as in PMID 38426897. Conditions: recent work; ref [5]; cited from earlier work.
The test system of data set [5] is A549 lung adenocarcinoma cells. The arrangement: method as in PMID 38426897. Conditions: MTT assay, exposure time 96 h; ref [5]; read-out: 50% inhibitory concentration A549 (chlorido complexes, reference) (converted); cited from earlier work. Background: Tetrazolium assays rely on reduction of a dye to a coloured formazan, in cell work by metabolically active cells.

The test system of data set [6] is HCT116 multicellular tumor spheroids (3D). In words: Resazurin assay, HCT116 3D multicellular tumor spheroids. Conditions: read-out: IC50 3D; HCT116 3D spheroids, resazurin assay, 96 h exposure.
Description: as §2, §3, §4
Data set [7] concerns SW480 colon adenocarcinoma cells. The arrangement: method as in PMID 38426897. The note with it: MTT assay, exposure time 96 h; ref [5]; read-out: 50% inhibitory concentration SW480 (chlorido complexes, reference) (converted); cited from earlier work.
Data set [8] relates to Balb/c mice. The data set can be described thus: Toxicity experiments in Balb/c mice (MTD). The note with it: for Toxicity in mice: i.p. 50 mg/kg, three consecutive days, 10% DMSO in 0.9% NaCl; for MTD fold lower compared to 1c and 3c: mice. The procedure: Finally, we were interested in the anticancer activity of selected complexes of our panel in an in vivo mouse setting. Before injecting the compounds in tumor-bearing mice, toxicity experiments were performed. […] On the last day of therapy, most animals were sacrificed and tissues as well as tumors collected. Only four mice (per group) were kept to get information on the impact of the drugs on the overall survival.

Data set [9] concerns SW480 cancer cells. The data set can be described thus: Cellular accumulation (ICP-MS) in SW480 cells. The note with it: 50 μM, 0.5% DMF in MEM, SW480, exposure time 2 h. The procedure: (§1) As the coordinated p-cym and leaving groups are present in all synthesized complexes, we focused on the differently substituted 4-phenylthiazoles for estimated changes in lipophilicity.
Cellular accumulation of the compounds was studied based on a method described previously with modifications. 1.8 × 10^5 SW480 cells per well were seeded in aliquots of 1 mL of complete MEM (see above) into 12-well plates (CytoOne, tissue culture treated, Starlab) and incubated at 37°C for 24 h. Then, cells were exposed for 2 h at 37°C to 50 μM solutions of the test compounds (containing 0.5% DMF) in fresh 0.5 mL of complete MEM upon exchange of the medium. Afterward, cells were washed three times with 1 mL PBS per well, lysed with 0.4 mL sub-boiled HNO3 per well for 1 h at room temperature, and 0.3 mL of each sample was diluted with 7.7 mL Milli-Q water. Adsorption/desorption controls were prepared in the same manner in cell-free wells. Ruthenium content was quantified by ICP-MS using an ICP-quadrupole MS Agilent 7800 instrument (Agilent Technologies, Waldbronn, Germany) as described previously.

A short description of data set [10]: Stability and reactivity in aqueous solution (1H-NMR, UV-vis).
Description: The exact concentration of the metal complex stock solutions was calculated on weight-in-volume basis. Complexes were dissolved in water in 1–5 mM concentration.
The path length was 1 cm.
^1H-NMR spectroscopic studies were carried out on a Bruker FT-NMR spectrometer AV NEO 500.10 MHz and a Bruker Avance III HD Ascend 500 Plus instrument. All ^1H-NMR spectra were recorded using a standard Bruker noesygppr1d pulse sequence to suppress water resonance. […] Samples contained 10% (v/v) D2O with a complex concentration of ca. 1 mM. Samples were prepared in pH 1.3 aqueous HCl solution or in pH 7.4 PBS.
For data set [11], the system named is CH1/PA-1 ovarian teratocarcinoma cells. The data set can be described thus: MTT assay, inhibition of cancer cell growth, CH1/PA-1. The note with it: read-out: 50% inhibitory concentration CH1, exposure time 96 h.
Description: (§5) CH1/PA-1 ovarian teratocarcinoma cells (CH1, RRID: CVCL_4992, provided by L. R. Kelland, CRC Center for Cancer Therapeutics, Institute of Cancer Research, Sutton, UK; confirmed by STR profiling as PA-1 ovarian teratocarcinoma cells at Multiplexion, Heidelberg, Germany), SW480 colon adenocarcinoma (RRID: CVCL_0546), and A549 lung adenocarcinoma cells (NCI-H2618, RRID: CVCL_A549; both cell lines were obtained from the American Type Culture Collection (ATCC), Manassas, VA, USA) were grown as adherent cultures in 75-cm^2 culture flasks (Starlab, Hamburg, Germany) by using minimal essential medium (MEM) supplemented with 1 mM sodium pyruvate, 4 mM L-glutamine, 1% (v/v) nonessential amino acids from 100-fold stock (all purchased from Sigma-Aldrich), and 10% heat-inactivated fetal bovine serum (Serana, Pessin, Germany).
(§6) The 3-(4,5-dimethylthiazol-2-yl)-2,5-diphenyl-2H tetrazolium bromide (MTT, Acros Organics, Geel, Belgium) assay was used to detect the cytotoxicity of the compounds after 96-h incubation. For this purpose, cells were harvested from culture flasks by trypsinization, seeded in 100-μL aliquots into 96-well microculture plates (Starlab, UK) in densities of 1 × 10^3 (CH1/PA-1), 2 × 10^3 (SW480), and 3 × 10^3 (A549) cells per well and incubated for 24 h prior to exposure to the test compounds. Stock solutions of test compounds were prepared in DMF, which were then diluted in MEM (not to exceed a final content of 0.5% v/v of organic solvent in the test plates), and serial dilutions were added in aliquots of 100 μL per well. […] After incubation for 4 h, the medium/MTT mixtures were removed, and the produced formazan crystals were dissolved in 150 μL DMSO per well. Optical densities at 550 nm were measured spectrophotometrically with a ELx808 Absorbance Microplate Reader (Bio-Tek, Winooski, VT, USA) by using a reference wavelength of 690 nm to correct for unspecific absorption.
Data set [12] in a line: Solubility in 1% DMF/PBS.
Text: Solubility is an important factor for the application of metallodrugs. DMF was used as solubilizer to allow comparison to the respective chlorido complexes where the usage of DMSO would lead to stable DMSO adducts.
as §1

For data set [13], the system named is SW480 colon adenocarcinoma cells. The data set can be described thus: MTT assay, inhibition of cancer cell growth, SW480. The note with it: read-out: 50% inhibitory concentration SW480, exposure time 96 h.
Description: as §5, §6
For data set [14], the system named is A549 lung adenocarcinoma cells. In words: MTT assay, inhibition of cancer cell growth, A549. Conditions: read-out: 50% inhibitory concentration A549, exposure time 96 h.
Description: as §5, §6
Data set [15] relates to G4 forming sequences (h-Telo, bcl2, hTERT, Kit1, Kit2) and dsDNA. The data set can be described thus: FRET melting assay, G-quadruplex / B-DNA interaction. Format: binding, human. Conditions: 60 mM potassium cacodylate pH 7.4, 2 h incubation. The procedure:
G4s are DNA secondary motifs that play crucial roles in cancer development. […] The complexes were incubated with different G4 forming sequences: one derived from human telomere-forming (h-Telo) and four corresponding to promoter regions of oncogenes, namely, bcl2, hTERT, Kit1, and Kit2. For comparison, a self-complementary sequence called dsDNA was used to represent B-DNA (Table S2).
FRET experiments were conducted using an Applied Biosystems QuantStudio 6 PCR cycler in a 96-well format equipped with a FAM (6-carboxyfluorescein) filter. Oligonucleotide stock solutions, labelled with FAM and TAMRA (6-carboxytetramethylrhodamine) probes, were diluted to the desired concentration in a 60-mM potassium cacodylate buffer (pH 7.4). To fold the oligonucleotides into their B-DNA or G4 topologies, the solutions were heated to 95°C for 5 min and then allowed to cool slowly to room temperature overnight. The final concentration of the oligonucleotides was 0.2 μM, with a total volume of 30 μL in each well. Metal complexes were dissolved in DMF to prepare 2 mM stock solutions and further diluted with the buffer, where DMF concentration never exceeded 0.05%. Mixtures of oligonucleotides and metal compounds were left at room temperature for 2 h. Data were collected twice, each time in duplicate, over a temperature range of 25°C–95°C, with a ramp of 1°C every 30 s. FAM emission data were normalized from 0 to 1 to compare different datasets. After data normalization, we extrapolated the T1/2 values, i.e., the temperature at which normalized FAM emission is 0.5. The DNA concentration is expressed in strands.

The structures appear in SMILES notation. Like-named read-outs stand apart in the source and are kept apart here.

As for `Cc1ccc(C(C)C)cc1.[Cl][Ru][c]1ccccc1-c1cscn1` [Compound 1a], the IC50 in data set [1] was 3 µM; in data set [2] it was 18 ± 5 µM; in data set [5] it was 24 µM; in data set [6], 31 ± 5 µM; in [7], 9.5 µM. Besides, the “Effect on intracellular ROS levels” value in data set [3] is on record as “constantly decrease ROS levels with increasing concentrations”. Also, in [4], the “Stabilization of DNA G-quadruplex structures” value is “stabilize DNA G-quadruplex (G4) structures”. Besides, the “Maximal tolerable dose (MTD) for repeated applications” value in data set [8] (Balb/c mice, i.p.) is reported as 5 mg/kg. The Toxicity in mice result in data set [8] (Balb/c mice) is recorded as “highly toxic”. Moreover, the “MTD fold lower compared to 1c and 3c” value in [8] is listed as 10 fold.

For the compound `Cc1ccc(-c2cscn2)[c]([Ru][Cl])c1.Cc1ccc(C(C)C)cc1` [Compound 1d], the IC50 was 14 µM in data set [1], 34 µM in data set [5] and 19 µM in data set [7]. In addition, the “Stabilization of DNA G-quadruplex structures” value in data set [4] was “stabilize DNA G-quadruplex (G4) structures”.

On to `Cc1ccc(C(C)C)cc1.Cn1cc[n+]([Ru-]2[c]3ccccc3-c3csc[n+]32)c1.O=[N+]([O-])[O-]` [Compound 3a, [((3-κN)-1-Methylimidazole)(4-phenylthiazolato-κN,κC2′)(η^6-p-cymene)ruthenium(II)] Nitrate], for which the “Cellular accumulation, fg Ru/cell” value in data set [9] was found to be 387 ± 16 fg Ru/cell. The “Sensitivity to chloride: replacement of coordinated MeIm” value in data set [10] (3 M KCl, pH 7.4, UV-vis) is given as “could not replace coordinated MeIm”. In data set [10] (PBS pH 7.4, 1 mM complex, 25°C, within 6 days, 1H-NMR), the “Decomposition at pH 7.4” value is given as “no decomposition”. Moreover, the “Behaviour in acidic solution” value in data set [10] (pH = 1.0 or 1.3 (HCl), followed in time up to 6 days, 1H-NMR/UV-vis) is “decomposition”. For the same compound, the “Spectral change at pH 10.0” value in data set [10] (pH = 10.0 (NaOH), within 2 days, UV-vis) is “no spectral change”. Also, the IC50 in data set [11] stood at 1.9 ± 0.1 µM; in [2], 8.4 ± 0.7 µM; in data set [6], 10.6 ± 0.9 µM; in [13], 5.4 ± 1.1 µM; in data set [14], 11 ± 1 µM. For the same compound, in [3], the “Effect on intracellular ROS levels” value is reported as “constantly decrease ROS levels with increasing concentrations”. The compound also showed a Solubility in [12] of 9.08 mM. In addition, in [15], the “Stabilization of oligonucleotides (G4s or B-DNA)” value was “No stabilization”. In addition, in data set [8] (Balb/c mice), the Toxicity in mice result is reported as “highly toxic”. Moreover, the “MTD fold lower compared to 1c and 3c” value in data set [8] came to 10 fold.

Take `Cc1ccc(C(C)C)cc1.Cn1cc[n+]([Ru-]2[c]3cc(F)ccc3-c3csc[n+]32)c1.O=[N+]([O-])[O-]` [Compound 3b, [((3-κN)-1-Methylimidazole)(4-(4-fluorophenyl)thiazolato-κN,κC2′)(η^6-p-cymene)ruthenium(II)] Nitrate]: the “Cellular accumulation, fg Ru/cell” value in [9] stood at 470 ± 71 fg Ru/cell. The IC50 in data set [11] came out at 2.8 ± 0.2 µM; in [13] it was 7.9 ± 1.5 µM; in data set [14] it was 20 ± 3 µM. In addition, the Solubility in [12] was found to be 8.82 mM.

Consider `Cc1ccc(C(C)C)cc1.Cc1ccc2[c](c1)[Ru-]([n+]1ccn(C)c1)[n+]1cscc1-2.O=[N+]([O-])[O-]` [Compound 3d, [((3-κN)-1-Methylimidazole)(4-(4-methylphenyl)thiazolato-κN,κC2′)(η^6-p-cymene)ruthenium(II)] Nitrate], for which, in data set [9], the “Cellular accumulation, fg Ru/cell” value worked out at 477 ± 47 fg Ru/cell. Further, the IC50 in data set [11] is 1.61 ± 0.04 µM; in data set [13] it was 3.8 ± 0.3 µM; in [14], 7.2 ± 1 µM. This compound showed a Solubility in data set [12] of 8.92 mM. Further, the “Stabilization of oligonucleotides (G4s or B-DNA)” value in data set [15] was “No stabilization”.

Regarding `COc1ccc2[c](c1)[Ru-]([n+]1ccn(C)c1)[n+]1cscc1-2.Cc1ccc(C(C)C)cc1.O=[N+]([O-])[O-]` [Compound 3e, [((3-κN)-1-Methylimidazole)(4-(4-methoxyphenyl)thiazolato-κN,κC2′)(η^6-p-cymene)ruthenium(II)] Nitrate], the “Cellular accumulation, fg Ru/cell” value in [9] was 246 ± 47 fg Ru/cell. For the same compound, the IC50 in data set [11] is 1.8 ± 0.3 µM; in data set [13], 5.5 ± 2.2 µM; in data set [14], 14 ± 1 µM. This compound gave a Solubility in data set [12] of 15.6 mM.

A word on the Solubility: it is the concentration that dissolves in the medium under given conditions.

The values are drawn from publication PMC12463534, “Exploring the Anticancer Properties of 4-Phenylthiazole-Based Ru(II) and Os(II) Metallacycles Featuring 1-Methylimidazole as N-Donor Functionality” (Bioinorganic Chemistry and Applications, 2025).
